Assay results as given in paper PMC12812009, “Optimization of 4‐Amino‐2‐Pyridone Inhibitors of Proprotein Convertase Subtilisin/Kexin Type 9: Integrating Structure–Activity and Structure–Metabolism Relationships” (Chemmedchem, 2025).
Where two headings read alike, the source gives them in different places.

Tests used:
[1] = In vitro metabolic stability with mouse liver microsomes; format: in vitro ADME; conditions: 60 min; for metabolic stability, percentage of intact compound recovered relative to control: MLM 1 mg/ml + NADPH-generating system, 10 µM, HPLC; for metabolic stability (in words): MLM + NADPH-generating system
Protocol: All newly synthesized LSF derivatives of 5c were biologically evaluated to determine whether the introduced modifications influenced both metabolic stability and anti‐PCSK9 activity. Microsomal stability assays were conducted to assess the impact of LSF modifications on improving the stability of 5c. In these assays, LSF derivatives were incubated with mouse liver microsomes (MLM) and an NADPH‐generating system for 60 min, followed by HPLC analysis. Control samples included compounds and liver microsomes without the NADPH system, allowing for the assessment of nonspecific binding to microsomes. […] Acylated derivatives 12, 13, and 14 achieved stability levels exceeding 95%, as did the bicyclic derivative 7, which exemplifies a dual‐site functionalization.
MLM (pooled male) were obtained from Xenotech, LLC (Cambridge, Kansas City, USA). Glucose‐6‐phosphate (G6P), oxidized nicotinamide‐adenine‐dinucleotide phosphate (NADP^+), magnesium chloride (MgCl2), and glucose‐6‐phosphate‐dehydrogenase (G6PDH) were supplied by Sigma‐Aldrich (Milan, Italy). Metabolic stability assays were modified from Ferlenghi et al.^[ [33] ^] Briefly, samples were prepared in 100 mM phosphate buffered saline (PBS), pH 7.4, containing 1 mg ml^–1 MLM and a NADPH‐generating system (5 mM MgCl2, 10 mM glucose‐6‐phosphate, 2 mM NADP^+, 1.5 U ml^–1 of glucose‐6‐phosphate dehydrogenase). After incubation (37 °C, 5 min stirring), compounds stock solutions in DMSO were added to a final concentration of 10 µM. The final DMSO percentage in samples was kept at 0.5%. After 60 min, single aliquots of reaction mixture were withdrawn, added of two volumes of acetonitrile, centrifuged (10,000 g, 10 min) and the supernatant was analyzed by HPLC. The unspecific binding to MLM was evaluated by means of control samples in which the compounds were incubated in the absence of a NADPH generating system. The apparatus used for HPLC analysis was a Shimadzu instrument, with a reverse‐phase Nova‐Pak column (Waters) (C18 4 μm 3.9 × 150 mm, Waters). The mobile phase, pumped at a flow rate of 1.2 ml min^–1, consisted of water and acetonitrile in either a 50:50 (v/v) ratio (compounds 5c, 6a, 6b, 6c, 7, 8, 12, 13, 14, 17b) or a 40:60 (v/v) ratio (compounds 11 and 15) or a 30:70 (v/v) ratio (for compounds 17a, 18a, 18b). For compounds 9 and 10, a phosphate buffer (5.98 g L^–1 Na2HPO4, 0.19 g L^–1 KH2PO4, adjusted to pH 7.4 with 85% H3PO4 and supplemented with 1.4 mL L^–1 triethylamine; final pH: 8) and acetonitrile (50:50, v/v) were pumped at a flow rate of 2 mL min^–1. In all cases, column temperature was 35 °C, injection volume was 50 µl, and absorbance was monitored at 254 nm. Serial dilutions for the calibration curves were prepared in the interval 0.5–20 µM in either PBS:CH3CN or H2O:CH3CN mixture (50:50, v/v) for compounds 5c, 6a, 6b, 8, 9, 10, 11, 12, 13, 14, 15, 17a, 17b, 18a, 18b, and in acetonitrile for compounds 6c and 7.

secreted PCSK9 = experiment: PCSK9 secretion in culture medium, ELISA on HepG2 supernatants; format: cell-based, human
Protocol: Next, the levels of secreted PCSK9 were quantified by ELISA assay (Figure 5) only on supernatants collected from cells treated with noncytotoxic concentrations of each compound, as reported in Table 1. Simvastatin (Simva) at 20 and 40 μM and berberine (BBR) at 10 μM were included as controls. As described in the literature, simvastatin induces PCSK9 expression as a compensatory mechanism in response to its cholesterol‐lowering effects, being a pharmacological competitor for HMG‐CoA reductase, the rate‐limiting enzyme of the cholesterol biosynthetic pathway.^[ [29] ^] In contrast, BBR, a natural compound, reduces the expression of PCSK9 levels through transcriptional inhibition, thus increasing the LDLR availability on plasma membrane.^[ [30] ^] As additional and distinct mechanism to the latter, BBR is also able to stabilize the transcript of LDLR, thus increasing its half‐life.^[ [31] ^] As expected, cells stimulated with simvastatin released more PCSK9 into the culture medium compared to unstimulated cells, with a statistically significant concentration‐dependent effect (+73% at 20 μM, p < 0.01; +200% at 40 μM, p < 0.0001), while BBR at 10 μM decreased PCSK9 levels in the medium more than 50% (p < 0.0001 vs. basal) (Figure 5).^[ [32] ^] The amount of PCSK9 secreted into the culture media was measured with an appropriate ELISA kit (R&D System, DY3888 and DY008B2) on the supernatants collected during the MTT assay. Every experimental condition was run in duplicate and the average PCSK9 secretion and standard deviation was calculated. A 4PL regression analysis was used to interpolate unknowns with the standard curve using GraphPad Prism v10.2, according to manufacturers’ instructions. The data were normalized onto the corresponding cell viability, and IC50 was then calculated using GraphPad Prism v10.2.

[2] = MTT cell viability assay in HepG2 cell cultures; format: cell-based, human; conditions: human, HepG2 cells, MTT
Protocol: The approach we set‐up to test the new PCSK9i was based on functional assay, which evaluated at the same time compounds cytotoxicity, and their effect on the secreted PCSK9 on the same cell line. First, cell viability was evaluated in HepG2 cell cultures using the MTT assay (CC50 values are reported in Table 1 and Figure 5 ) after 24 h of incubation in starving conditions (0.4% fetal bovine serum (FBS)). The low FBS concentration, and thus low extracellular lipoproteins, stimulates the sterol responsive element binding protein (SREBP) pathway, inducing the expression of LDLR, PCSK9, HMG‐CoA reductase,^[ [28] ^] thus increasing the uptake of exogenous cholesterol and enhancing the synthesis of endogenous cholesterol. This first step allowed us to calculate the CC50 and identify the noncytotoxic concentrations (viability higher than 90%; Table 1), then tested for PCSK9 inhibitory activity.
Cell viability was assessed using the MTT assay. Cells were seeded in 96‐well plates (2.5 × 10^4 cells/well) in MEM supplemented with 10% v/v FBS and incubated for 24 h. The cells were then treated with the synthesized compounds dissolved in DMSO at increasing concentrations (from 0.5 to 50 µM) in MEM supplemented with 0.4% v/v FBS for 24 h. Simvastatin [20 and 40 µM] and BBR [10 µM] (both from Merck, St. Louis, Missouri, USA) were used as internal controls as PCSK9 inducer and inhibitor, respectively.^[ [21] ^, [34] ^, [35] ^] The cells were then incubated for 2 h with a solution of MTT [1 mg mL^–1] in MEM supplemented with 0.4% v/v FBS, away from light sources. The supernatant was then collected and 200 µL of DMSO was added to each well to solubilize the newly formed formazan. Finally, an aliquot of 100 µL was taken to measure the absorbance at a wavelength of 570 nm using an absorbance microplate reader (Spark Tecan, Switzerland). Every experimental condition was run in duplicate and the average cell viability and standard deviation was calculated. Cell viability was expressed as the percentage of treated cells compared to untreated (basal) cells. CC50 values for each compound were calculated by interpolating the percentage of cell viability through nonlinear regression analysis of the log (inhibition) versus response using GraphPad Prism software version 8.0 (GraphPad Software Inc., La Jolla, CA).

[3] = HepG2, 24 h, non-cytotoxic concentrations
[4] = Homo sapiens, HepG2, Table S2, ELISA, non-cytotoxic concentrations, read-out: IC50 ± SD on PCSK9 secreted by HepG2
[5] = 24 h incubation, HepG2, 0.4% FBS, 0.5-50.0 μM, read-out: CC50 (CI 95%)
[6] = Homo sapiens, HepG2, 24 h, read-out: secreted PCSK9 change vs. basal
[7] = printed in Figures 5 and 8, HepG2, 24 h, read-out: CC50
[8] = Homo sapiens, HepG2, 24 h, ELISA on supernatants, normalized to viability, Figures 5 and 8 and text, read-out: IC50 (anti-PCSK9 activity, PCSK9 secretion)

Compound | effect on PCSK9 secretion (in words) (secreted PCSK9; [3]) | IC50 (secreted PCSK9; [4]) | CC50 at 24 h [2, 5] | metabolic stability (in words) [1] | inhibition at 5 µM (secreted PCSK9; [6]) | other results
Cc1cc(N(Cc2ccc(C(F)(F)F)cc2)C(=O)CCl)cc(=O)n1Cc1ccc(C(F)(F)F)cc1 [Compound 14, 2‐Chloro‐N‐(6‐Methyl‐2‐Oxo‐1‐(4‐(Trifluoromethyl)Benzyl)‐1,2‐Dihydropyridin‐4‐yl)‐N‐(4‐(Trifluoromethyl)Benzyl)Acetamide] | a bit less effective than 8 at the highest concentration used | 6.4 ± 0.37 µM | 15 µM | – | – | metabolic stability, percentage of intact compound recovered relative to control [1]: exceeding 95%
CCC(C)(C)C(=O)O[C@H]1C[C@@H](C)C=C2C=C[C@H](C)[C@H](CC[C@@H]3C[C@@H](O)CC(=O)O3)[C@H]21 [simvastatin, reference compound] | – | – | – | – | – | secreted PCSK9 change vs. unstimulated cells (secreted PCSK9; 20 μM, HepG2, 24 h): +73%; secreted PCSK9 change vs. unstimulated cells (secreted PCSK9; 40 μM, HepG2, 24 h): +200%
CC(=O)N(Cc1ccc(C(F)(F)F)cc1)c1cc(C)n(Cc2ccc(C(F)(F)F)cc2)c(=O)c1 [Compound 12, N‐(6‐Methyl‐2‐Oxo‐1‐(4‐(Trifluoromethyl)Benzyl)‐1,2‐Dihydropyridin‐4‐yl)‐N‐(4‐(Trifluoromethyl)Benzyl)Acetamide] | did not inhibit PCSK9 in a dose‐dependent manner | 13.6 ± 2.67 µM | 43 µM | – | – | metabolic stability, percentage of intact compound recovered relative to control [1]: exceeding 95%; inhibition at 25 µM (secreted PCSK9; [6]): 75%
Cc1cc(OCc2ccc(C(F)(F)F)cc2)cc(=O)n1Cc1ccc(C(F)(F)F)cc1 [Compound 17a, 6‐Methyl‐1‐(4‐(Trifluoromethyl)Benzyl)‐4‐((4‐(Trifluoromethyl)Benzyl)Oxy)pyridin‐2(1H)‐One] | – | – | 22 µM | did not show improved metabolic stability compared to 5c | 58% | –
CC(=O)N(Cc1ccc(C(F)(F)F)cc1)c1cc(C)n(Cc2ccc(C(F)(F)F)cc2)c(=O)c1Br [Compound 15, N‐(3‐Bromo‐6‐Methyl‐2‐Oxo‐1‐(4‐(Trifluoromethyl)Benzyl)‐1,2‐Dihydropyridin‐4‐yl)‐N‐(4‐(Trifluoromethyl)Benzyl)Acetamide] | did not inhibit PCSK9 in a dose‐dependent manner | – | – | did not result in improved stability over the single‐site modifications in 12 or 6b | – | inhibition at 25 µM (secreted PCSK9; [6]): 80%; CC50 at 24 h [2, 7]: > 50 µM
COc1ccc2cc3[n+](cc2c1OC)CCc1cc2c(cc1-3)OCO2 [BBR, berberine, reference compound] | – | – | – | – | – | decrease of secreted PCSK9 vs. basal (secreted PCSK9; 10 μM, HepG2, 24 h, given as decrease): more than 50%; inhibition at 10 µM (secreted PCSK9; Homo sapiens, 10 μM, HepG2, 24 h, read-out: secreted PCSK9 change vs. basal): 52%; IC50 (secreted PCSK9; [8]): 10 µM; CC50 at 24 h [2, 7]: 25 µM
Cc1cc(NCc2ccc(C(F)(F)F)cc2)c(Cl)c(=O)n1Cc1ccc(C(F)(F)F)cc1 [Compound 6a, 3‐Chloro‐6‐Methyl‐1‐(4‐(Trifluoromethyl)Benzyl)‐4‐((4‐(Trifluoromethyl)Benzyl)Amino)pyridin‐2(1H)‐One] | – | 5.4 ± 2.65 µM | 16 µM | – | 55% | inhibition at 0.5 µM (secreted PCSK9; Homo sapiens, 0.5 μM, HepG2, 24 h, read-out: secreted PCSK9 change vs. basal): 80%
Cc1cc(NCc2ccc(C(F)(F)F)cc2)c(CN2CCCC2)c(=O)n1Cc1ccc(C(F)(F)F)cc1 [Compound 9, 6‐Methyl‐3‐(Pyrrolidin‐1‐ylmethyl)‐1‐(4‐(Trifluoromethyl)Benzyl)‐4‐((4‐(Trifluoromethyl)Benzyl)Amino)pyridin‐2(1H)‐One] | moderate but significant inhibition of PCSK9 secretion | – | 22.2 µM | did not exhibit any enhancements relative to 5c | – | –
Cc1cc(OCc2cccc(F)c2)cc(=O)n1Cc1ccc(Cl)cc1 [Compound 17b, 1‐(4‐Chlorobenzyl)‐4‐((3‐Fluorobenzyl)Oxy)‐6‐Methylpyridin‐2(1H)‐One] | – | – | 10 µM | did not show any improvement in metabolic stability compared to 5c | 82% | IC50 (secreted PCSK9; [8]): < 2.5 µM
Cc1cc2c(c(=O)n1Cc1ccc(C(F)(F)F)cc1)CN(C(C)C)CN2Cc1ccc(C(F)(F)F)cc1 [Compound 10, 3‐Isopropyl‐7‐Methyl‐1,6‐Bis(4‐(Trifluoromethyl)Benzyl)‐2,3,4,6‐Tetrahydropyrido[4,3‐d]pyrimidin‐5(1H)‐One] | – | – | 21.9 µM | less stable | – | –
